This is an account of results in patent US5004690A, “Ascorbic acid intermediates and process enzymes” (Genetech, Inc., priority 1989, dated 1991).

Where two headings read alike, the source gives them in different places.

The target in this test is T1, 2,5-DKG reductase (Corynebacterium sp., UniProt P06632).
T1 construct: resuspension in 650 ml Tris buffer containing 2 mg/ml lyozyme to release intracellular proteins; endogenous in cells; host or cells: Corynebacterium sp; ATCC 31090 (enzyme purified in house from the cell paste)
T1 sequence (P06632 whole entry): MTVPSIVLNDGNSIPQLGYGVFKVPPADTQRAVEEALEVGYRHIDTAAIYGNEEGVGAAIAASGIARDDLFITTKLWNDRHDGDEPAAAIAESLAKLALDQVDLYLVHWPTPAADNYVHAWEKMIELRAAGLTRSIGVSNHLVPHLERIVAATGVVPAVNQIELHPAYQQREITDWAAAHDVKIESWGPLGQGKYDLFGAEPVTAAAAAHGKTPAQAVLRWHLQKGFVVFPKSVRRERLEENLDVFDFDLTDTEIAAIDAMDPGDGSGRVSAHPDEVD
Put plainly: 2,5-DKG reductase assay: kinetic parameters, substrate specificity, cofactor requirements, pH optimum. In kind it is biochemical, Corynebacterium sp. ATCC 31090. Conditions: sodium phosphate buffer 150 mM, pH 6.4, 25° C., enzyme 10 μg, read-out: Michaelis constants (Km). From the text: The following assay conditions were used to determine kinetic parameters: […]

On to `O=C(O)C(=O)[C@@H](O)[C@H](O)C(=O)CO` [2,5-DKG, 2,5-diketogluconic acid], for which the Km (usually the substrate concentration at which the rate is half of its maximum) (2,5-DKG 0.43-43 mM) is 15.5 mM.
As for `NC(=O)C1=CN([C@@H]2O[C@H](COP(=O)(O)OP(=O)(O)OC[C@H]3O[C@@H](n4cnc5c(N)ncnc54)[C@H](OP(=O)(O)O)[C@@H]3O)[C@@H](O)[C@H]2O)C=CC1` [NADPH], the Michaelis-Menten constant (Km) (NADPH 11-300 μM) stood at 0.0337 mM.
